Where two headings read alike, the source gives them in different places. One block for each compound: values may come before it.
Key:
Type in all cases: in vivo
[1] = test system: Abutilon theophrasti (ABUTH); assay: Post-emergence herbicidal action against ABUTH; conditions: 320 g/ha, visual rating about 3 weeks after treatment vs untreated controls (100% = plants have died, 0% = like control plants)
Outline: (§1)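 Values are percent visual activity (0% like control, 100% plants dead) after about 3 weeks in the greenhouse. Treatment: post-emergence spray at one-leaf stage, 600 l/ha spray volume, 0.5% additive, doses 320 g/ha or lower.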

[2] = test system: Alopecurus myosuroides (ALOMY); assay: Post-emergence herbicidal action against ALOMY; conditions: visual rating about 3 weeks after treatment vs untreated controls (100% = plants have died, 0% = like control plants)
Outline: as §1

Avena fatua (AVEFA) [3] = assay: Post-emergence herbicidal action against AVEFA; conditions: visual rating about 3 weeks after treatment
Outline: as §1

[4] = test system: Digitaria sanguinalis (DIGSA); assay: Post-emergence herbicidal action against DIGSA; conditions: 320 g/ha, visual rating about 3 weeks after treatment
Outline: as §1

[5] = test system: Echinochloa crus-galli (ECHCG); assay: Post-emergence herbicidal action against ECHCG
Outline: as §1

Lolium rigidum (LOLRI) [6] = assay: Post-emergence herbicidal action against LOLRI
Outline: as §1

[7] = test system: Matricaria inodora (MATIN); assay: Post-emergence herbicidal action against MATIN; conditions: dosage 320 g/ha
Outline: as §1

[8] = test system: Pharbitis purpurea (PHBPU); assay: Post-emergence herbicidal action against PHBPU
Outline: as §1

[9] = test system: Polygonum convolvulus (POLCO); assay: Post-emergence herbicidal action against POLCO; conditions: dosage 320 g/ha
Outline: as §1

Setaria viridis (SETVI) [10] = assay: Post-emergence herbicidal action against SETVI
Outline: as §1

[11] = test system: Verconica persica (VERPE); assay: Post-emergence herbicidal action against VERPE
Outline: as §1

Viola tricolor (VIOTR) [12] = assay: Post-emergence herbicidal action against VIOTR
Outline: as §1

Oryza sativa (ORYSA) [13] = conditions: crop plant compatibility
Outline: (§2)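 Percent effect on the crop was judged by eye against untreated controls, where 0% means like control and 100% means dead plants. Plants had been sprayed post-emergence at the one-leaf stage and then kept under optimum greenhouse conditions for about 3 weeks.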

[14] = test system: Triticum aestivum (TRZAS); conditions: crop plant compatibility, 20 g/ha, effect vs untreated controls
Outline: as §2

Zea mays (ZEAMX) [15] = conditions: for Post-emergence action against ZEAMX in % (crop plant compatibility): 20 g/ha, effect in comparison to untreated controls; for Post-emergence action against ZEAMX in %: crop plant compatibility, 80 g/ha, effect vs untreated controls
Outline: as §2

Brassica napus (BRSNW) [16] = assay: Post-emergence crop plant compatibility, BRSNW; conditions: 20 g/ha, effect in comparison to untreated controls
Method: (§3) Seeds of monocotyledonous and dicotyledonous weeds and crop plants are placed in sandy loam in plastic or organic planting pots, covered with soil and cultivated in a greenhouse under controlled growth conditions. 2 to 3 weeks after sowing, the test plants are treated at the one-leaf stage. The compounds of the invention, formulated in the form of wettable powders (WP) or as emulsion concentrates (EC), are then sprayed onto the green parts of the plants as aqueous suspension or emulsion with addition of 0.5% additive at a water application rate of 600 l/ha (converted). After the test plants have been kept in the greenhouse under optimum growth conditions for about 3 weeks, the activity of the preparations is rated visually in comparison to untreated controls. For example, 100% activity=the plants have died, 0% activity=like control plants.
(§4) The observed effects on selected crop plants are reported here in comparison to the untreated controls (values in %). The appendices “a”, “b” and “c” give differentiation by dosage used with otherwise the same crop plants tested.

[17] = test system: Alopecurus myosuroides (ALOMY); assay: Pre-emergence herbicidal action against ALOMY; conditions: scored visually after about 3 weeks, 100% = plants have died
Outline: (§5)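 Read-out is visual percent damage relative to untreated pots, with 100% meaning dead plants and 0% meaning no difference, assessed roughly three weeks after treatment. Compounds were applied pre-emergence to the covering soil at up to 320 g/ha.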

[18] = test system: Amaranthus retroflexus (AMARE); assay: Pre-emergence herbicidal action against AMARE; conditions: visual scoring after about 3 weeks vs untreated controls
Outline: as §5

Avena fatua (AVEFA) [19] = assay: Pre-emergence herbicidal action against AVEFA; conditions: 320 g/ha, visual scoring after about 3 weeks vs untreated controls
Outline: as §5

[20] = test system: Echinochloa crus-galli (ECHCG); assay: Pre-emergence herbicidal action against ECHCG; conditions: dosage 320 g/ha
Outline: as §5

Lolium rigidum (LOLRI) [21] = assay: Pre-emergence herbicidal action against LOLRI; conditions: dosage 320 g/ha
Outline: as §5

[22] = test system: Polygonum convolvulus (POLCO); assay: Pre-emergence herbicidal action against POLCO
Outline: as §5

Setaria viridis (SETVI) [23] = assay: Pre-emergence herbicidal action against SETVI; conditions: dosage 320 g/ha
Outline: as §5

[24] = test system: Verconica persica (VERPE); assay: Pre-emergence herbicidal action against VERPE; conditions: dosage 320 g/ha
Outline: as §5

Viola tricolor (VIOTR) [25] = assay: Pre-emergence herbicidal action against VIOTR
Outline: as §5

Zea mays (ZEAMX) [26] = conditions: pre-emergence, 80 g/ha, crop plant compatibility, in comparison to untreated controls
Outline: (§6)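 Scoring: visual, % of untreated control, about 3 weeks after a pre-emergence application to the soil surface. Application used WP or EC formulations diluted in water with 0.5% additive at 600 l/ha; dosage levels are marked by suffixes a, b and c.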

[27] = test system: Matricaria inodora (MATIN); assay: Pre-emergence herbicidal action against MATIN; conditions: dosage 320 g/ha
Outline: as §5

Brassica napus (BRSNW) [28] = conditions: crop plant compatibility, in comparison to untreated controls
Outline: as §6

Glycine max (GLXMA) [29] = conditions: pre-emergence, 80 g/ha, crop plant compatibility, in comparison to untreated controls
Outline: as §6

Oryza sativa (ORYSA) [30] = conditions: pre-emergence, 80 g/ha, crop plant compatibility, in comparison to untreated controls
Outline: as §6

[31] = test system: Triticum aestivum (TRZAS); conditions: pre-emergence, crop plant compatibility, in comparison to untreated controls
Outline: as §6

Glycine max (GLXMA) [32] = assay: Post-emergence crop plant compatibility, GLXMA; conditions: post-emergence, 80 g/ha, effect in comparison to untreated controls
Method: as §3, §4

[33] = 20 g/ha, effect vs untreated controls
[34] = 80 g/ha, effect in comparison to untreated controls

Post-emergence action against ORYSA in % (Oryza sativa (ORYSA) [13]; [33]): 0%
Post-emergence action against ORYSA in % (Oryza sativa (ORYSA) [13]; [34]): 10%
Post-emergence action against TRZAS in % [14]: 20%
Post-emergence action against ZEAMX in % (crop plant compatibility) (Zea mays (ZEAMX) [15]): 0%
Post-emergence action against ZEAMX in % (Zea mays (ZEAMX) [15]): 10%
Post-emergence action against BRSNW in % (Brassica napus (BRSNW) [16]): 20%
Structure (SMILES): O=C(COc1nn(-c2ncccc2F)c(-c2ccc(F)nc2)c1C1CC1)OCC1CCOC1 (stereo not shown) [Example I-289]
Post-emergence action against ABUTH in % [1]: 80%
Post-emergence action against ALOMY in % ([2]; 80 g/ha): 80%
Post-emergence action against ALOMY in % ([2]; 320 g/ha): 90%
Post-emergence action against AVEFA in % (Avena fatua (AVEFA) [3]; 80 g/ha): 80%
Post-emergence action against AVEFA in % (Avena fatua (AVEFA) [3]; 320 g/ha): 90%
Post-emergence action against DIGSA in % [4]: 80%
Post-emergence action against ECHCG in % ([5]; dosage 80 g/ha): 80%
Post-emergence action against ECHCG in % ([5]; dosage 320 g/ha): 80%
Post-emergence action against LOLRI in % (Lolium rigidum (LOLRI) [6]; dosage 80 g/ha): 80%
Post-emergence action against LOLRI in % (Lolium rigidum (LOLRI) [6]; dosage 320 g/ha): 90%
Post-emergence action against MATIN in % [7]: 90%
Post-emergence action against PHBPU in % ([8]; dosage 80 g/ha): 80%
Post-emergence action against PHBPU in % ([8]; dosage 320 g/ha): 80%
Post-emergence action against POLCO in % [9]: 80%
Post-emergence action against SETVI in % (Setaria viridis (SETVI) [10]; dosage 80 g/ha): 90%
Post-emergence action against SETVI in % (Setaria viridis (SETVI) [10]; dosage 320 g/ha): 90%
Post-emergence action against VERPE in % ([11]; 320 g/ha, VERPE): 80%
Post-emergence action against VERPE in % ([11]; dosage 80 g/ha): 80%
Post-emergence action against VIOTR in % (Viola tricolor (VIOTR) [12]; 80 g/ha): 80%
Post-emergence action against VIOTR in % (Viola tricolor (VIOTR) [12]; 320 g/ha): 80%

Pre-emergence action against ZEAMX in % (Zea mays (ZEAMX) [26]): 20%
Post-emergence action against ORYSA in % (Oryza sativa (ORYSA) [13]; [33]): 20%
Post-emergence action against ORYSA in % (Oryza sativa (ORYSA) [13]; [34]): 20%
Post-emergence action against TRZAS in % [14]: 10%
Post-emergence action against ZEAMX in % (crop plant compatibility) (Zea mays (ZEAMX) [15]): 10%
Post-emergence action against ZEAMX in % (Zea mays (ZEAMX) [15]): 10%
Post-emergence action against BRSNW in % (Brassica napus (BRSNW) [16]): 10%
Structure (SMILES): CCOC(=O)CCNC(=O)COc1nn(-c2ncccc2F)c(-c2ccc(OC)nc2)c1Br [Example I-47]
Pre-emergence action against ALOMY ([17]; 80 g/ha): 90%
Pre-emergence action against ALOMY ([17]; 320 g/ha): 90%
Pre-emergence action against AMARE in % ([18]; 80 g/ha): 100%
Pre-emergence action against AMARE in % ([18]; 320 g/ha): 100%
Pre-emergence action against AVEFA in % (Avena fatua (AVEFA) [19]): 90%
Pre-emergence action against ECHCG in % [20]: 90%
Pre-emergence action against LOLRI in % (Lolium rigidum (LOLRI) [21]): 100%
Pre-emergence action against POLCO in % ([22]; dosage 80 g/ha): 80%
Pre-emergence action against POLCO in % ([22]; dosage 320 g/ha): 90%
Pre-emergence action against SETVI in % (Setaria viridis (SETVI) [23]): 100%
Pre-emergence action against VERPE in % [24]: 90%
Pre-emergence action against VIOTR in % (Viola tricolor (VIOTR) [25]; 320 g/ha, Viola tricolor): 100%
Pre-emergence action against VIOTR in % (Viola tricolor (VIOTR) [25]; dosage 80 g/ha): 100%
Post-emergence action against ECHCG in % ([5]; dosage 80 g/ha): 80%
Post-emergence action against SETVI in % (Setaria viridis (SETVI) [10]; dosage 80 g/ha): 90%

Pre-emergence action against BRSNW in % (Brassica napus (BRSNW) [28]; 80 g/ha): 20%
Pre-emergence action against BRSNW in % (Brassica napus (BRSNW) [28]; 320 g/ha): 20%
Pre-emergence action against GLXMA in % (Glycine max (GLXMA) [29]): 0%
Pre-emergence action against ORYSA in % (Oryza sativa (ORYSA) [30]): 0%
Pre-emergence action against TRZAS in % ([31]; 80 g/ha): 0%
Pre-emergence action against TRZAS in % ([31]; 320 g/ha): 20%
Post-emergence action against ORYSA in % (Oryza sativa (ORYSA) [13]; [34]): 20%
Post-emergence action against GLXMA in % (Glycine max (GLXMA) [32]): 0%
Structure (SMILES): CCOC(=O)CCNC(=O)CSc1nn(-c2ccccn2)c(-c2cncc(F)c2)c1Br [Example I-82]
Pre-emergence action against ECHCG in % [20]: 90%
Pre-emergence action against MATIN in % [27]: 90%
Pre-emergence action against SETVI in % (Setaria viridis (SETVI) [23]): 90%
Post-emergence action against ECHCG in % ([5]; dosage 320 g/ha): 80%
Post-emergence action against VIOTR in % (Viola tricolor (VIOTR) [12]; 320 g/ha): 80%
